Values joined by “and” are separate entries in the source; they are usually repeats but may differ in a detail not shown here. Equal entries are not always repeated. “Also recorded” adds a separate entry of the source. Structures can show the parent of a compound that is named as a salt. Bounds are passed on as bounds.

The test system of data set [1] is excessive growth of the undercoat (baby coat) due to spaying. The data set is described as follows: Two cocker spaniel bitches with excessive growth of the undercoat due to spaying, slow-release s.c. implant. It is filed as in vivo, dog. The settings on record: 5 mg slow release s.c. How it is done: Two cocker spaniel bitches belonging to the same owner were showing excessive growth of the undercoat due to spaying. […] Both dogs were first clinically examined and thereafter a GnRH analogue (Deslorelin) in a dosage of 5 mg, in slow release form, was subcutaneously implanted between the shoulder blades.

Data set [2] deals with dogs suffering from urinary incontinence. The experiment in a line: Double-blind, placebo-control study with open label phase in 16 client owned dogs suffering from urinary incontinence. It is filed as in vivo, dog. Particulars: ongoing study. How it is done: In a second ongoing study, 16 client owned dogs suffering from urinary incontinence were enrolled in a double-blind, placebo-control study. In the initial phase of the study, dogs were randomly assigned to treatment with a long-acting GnRH analogue (leuprolide acetate) or placebo (dog owners and the investigators were blinded to treatment) along with a short course of therapy with phenylpropanolamine. 5 weeks after treatment with drug or placebo, dogs were evaluated and, if not fully continent, treated with a long-acting GnRH analogue (leuprolide acetate) in an open label phase of the study. To date only 1 of 10 dogs treated with placebo became continent vs. […] treated with drug during the blinded portion of the study. Overall, the results generated thus far indicate […] dogs treated with the long-acting GnRH analogue became continent and […] improved after discontinuation of the short acting phenylpropanolamine. Only 1 dog of 15 treated with the GnRH analogue was considered not to have improved following treatment with the drug.

Data set [3] deals with bitches suffering from urinary incontinence after spaying. The data set is described as follows: Fifteen bitches with urinary incontinence after spaying, given a slow-release s.c. GnRH analogue implant plus phenylpropanolamine for a limited period. It is filed as in vivo, dog. Particulars: for Side effects: dash = none. How it is done:
Additionally, for a limited period the dogs were treated with phenylpropanolamine in a dosage of 1.5 mg/kg BW tid orally.
After discontinuation of the shortacting phenylpropanolamine 8 bitches remained continent. Their continence was therefore achieved solely by the treatment with the composition as described in the present invention. Seven out of fifteen dogs seemed to be much happier and in none of the dogs did the general condition deteriorate. […] The respective results are shown in more detail in table 1.

The next data set deals with stress incontinence. The experiment in a line: Menopausal person with stress incontinence, 24 hour pad test. It is filed as in vivo, human. The settings on record: single dose 3.75 mg, one person. On the procedure:
A second menopausal person, suffering from stress incontinence for at least 6 years, was treated with a single dose of 3.75 mg of leuprolide acetate. 24 hour pad tests conducted prior to treatment with the drug indicated they lost between 10 and 130 ml of urine on a daily basis due to their incontinence.

The test system of data set [4] is urinary incontinence of the bitch. The settings on record: 1.5 mg/kg BW p.o. given every 8 hours; incontinent spayed bitches; cited from earlier work.
The test system of data set [5] is urge incontinence and hotflushes. The data set is described as follows: Perimenopausal person with urge incontinence and hot flushes. It is filed as in vivo, human. The settings on record: 3.75 mg; one perimenopausal person.
[6] abbreviates: 11,25 mg slow release s.c. implant, no 'with PPA' mark, individual bitches, listed as Leuprorelin acetate.
[7] abbreviates: 11,25 mg slow release s.c. implant, with PPA, individual bitch.
Setting [8] is: 6 mg slow release s.c. implant, no 'with PPA' mark, individual bitches.
Setting [9] is: 12 mg slow release s.c. implant, no 'with PPA' mark, individual bitches.

With `CCNC(=O)[C@@H]1CCCN1C(=O)[C@H](CCCN=C(N)N)NC(=O)[C@H](CC(C)C)NC(=O)[C@@H](Cc1c[nH]c2ccccc12)NC(=O)[C@H](Cc1ccc(O)cc1)NC(=O)[C@H](CO)NC(=O)[C@H](Cc1c[nH]c2ccccc12)NC(=O)[C@H](Cc1cnc[nH]1)NC(=O)[C@@H]1CCC(=O)N1` [Deslorelin], the Coat quality result in data set [1] (5 weeks after the injection, both dogs) was “obvious amelioration of the coat quality”. Besides, the “Signs of baby coat” value in data set [1] (21 weeks after injection) is “no signes of “baby coat” were apparent anymore”.
Take `CCNC(=O)[C@@H]1CCCN1C(=O)[C@H](CCCNC(=N)N)NC(=O)[C@H](CC(C)C)NC(=O)[C@@H](CC(C)C)NC(=O)[C@H](Cc1ccc(O)cc1)NC(=O)[C@H](CO)NC(=O)[C@H](Cc1c[nH]c2ccccc12)NC(=O)[C@H](Cc1c[nH]cn1)NC(=O)[C@@H]1CCC(=O)N1` [Leuprorelinacetate, leuprolide acetate]: the “Dogs that became continent after discontinuation of phenylpropanolamine, overall” value in data set [2] (of 15 dogs treated (blinded plus open label)) is 6 dogs. The “Dogs considered not to have improved following treatment” value in data set [2] (of 15 treated) was found to be 1 dog. The “Remaining dogs that improved after discontinuation of phenylpropanolamine” value in data set [2] (of the remaining dogs of 15 treated) was found to be 9 dogs. The “Dogs that became continent during the blinded portion of the study” value in data set [2] (printed '3 to 8 dogs treated with drug', 5 weeks after treatment, with short course of phenylpropanolamine) turned out to be 3 dogs. Moreover, the “Duration of effect after treatment” value in data set [3] (11,25 mg slow release s.c. implant, no 'with PPA' mark, individual bitches) is 0 days; in data set [3] (setting [6]), over 14 days; in data set [3] (setting [7]), over 64 days. Further, the Effect on incontinence in data set [3] (setting [6]) and in data set [3] (setting [7]) was 100% in each case. In the data set with stress incontinence (2 weeks after treatment, before treatment between 10 and 130 ml daily), the “Daily urine loss, pad test” value amounted to 1 mL. Moreover, the “Patient's satisfaction with the effects of the therapy” value with stress incontinence was “very satisfied”.
As for `CN[C@@H](C)[C@H](O)c1ccccc1` [ephedrinhydrochloride], in data set [4], the Continence achieved is 74% and the Showed some improvement entry is “at least 24%”.
Take `CC(N)C(O)c1ccccc1` (centres unmarked) [phenylpropanolamine]: in data set [4], the Continence achieved is given as 74% and the Showed some improvement entry was “at least 24%”.
Take Buserelin acetate [Buserelinacetate]: in data set [3] (6,3 mg slow release s.c. implant, individual bitches), the “Duration of effect after treatment” value is 44 days and 83 days. Besides, the Effect on incontinence in data set [3] (6,3 mg slow release s.c. implant, no 'with PPA' mark, individual bitches) was determined as 100%.
As for Deslorelin acetate [Deslorelinacetate], the Side effects result in data set [3] (6 mg slow release s.c. implant, individual bitches) was “More playfull”; in data set [3] (12 mg slow release s.c. implant, individual bitches), “less aggressive; also recorded: more activ”. Also, the “Duration of effect after treatment” value in data set [3] (setting [8]) was >47 days and >340 days; in data set [3] (setting [9]), 64 days and >64 days. The Effect on incontinence in data set [3] (setting [8]) was 100%; in data set [3] (6 mg slow release s.c. implant, with PPA, individual bitch), 100%; in data set [3] (setting [9]) it was 100%; in data set [3] (12 mg slow release s.c. implant, with PPA, individual bitches) it was 80% and 100% (2×).
For “Triptorelin acetate [Triptorelinacetate]”, in data set [5], the “Period of improvement of symptoms” value is recorded as “about 4 weeks”. Further, the “Duration of effect after treatment” value in data set [3] (3,75 mg slow release s.c. implant (dose too low), individual bitch) amounted to 0.

These data come from patent US20040023878A1, “Gnrh analogues for treatment of urinary incontinence” (priority 2003, published 2004).
